Laboratory results taken from ChEMBL document CHEMBL1201862, “PubChem BioAssay data set” (2004).
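The compound was tested at five concentrations on cells cultured in 96-well plates, with a 48-hour exposure period. At the GI50, growth is halved.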 Active and inactive are the calls of the source. Rule as the data show it: active = GI50 up to about 1.1 µM and inactive = higher.

Columns and labels:
Experiment in all cases: growth of human tumour cells (NCI), 48 h
[1] = tested on: MOLT-4
[2] = tested on: OVCAR-3
[3] = tested on: TK-10
[4] = tested on: SF-295
[5] = tested on: LOX IMVI
[6] = tested on: OVCAR-8
[7] = tested on: HL-60
[8] = tested on: K562
[9] = tested on: ACHN
[10] = tested on: SK-MEL-5
[11] = tested on: SK-OV-3
[12] = tested on: EKVX
[13] = tested on: KM12
[14] = tested on: HCT-15
[15] = tested on: HT-29
[16] = tested on: CCRF-CEM
[17] = tested on: OVCAR-4
[18] = tested on: SR

Row | Structure (SMILES) | GI50 [1] | GI50 [2] | GI50 [3] | GI50 [4] | GI50 [5] | GI50 [6] | GI50 [7] | GI50 [8] | GI50 [9] | GI50 [10] | GI50 [11] | GI50 [12] | GI50 [13] | GI50 [14] | GI50 [15] | GI50 [16] | GI50 [17] | GI50 [18]
1 | COC(=O)Cc1c([C@@]2(C)CCCC(C)(C)C2)ccc2c1C(=O)OC2 | 3.92 µM (inactive) | 5.25 µM (inactive) | 17.9 µM (inactive) | 10.3 µM (inactive) | 11.2 µM (inactive) | 15.3 µM (inactive) | 3.42 µM (inactive) | 4.02 µM (inactive) | 11.7 µM (inactive) | 7.36 µM (inactive) | 14 µM (inactive) | 18.1 µM (inactive) | 8.15 µM (inactive) | 6.44 µM | 10.8 µM (inactive) | 6.49 µM (inactive) |  | 
2 | COc1ccc(C[C@]23CCC(=O)N2CCc2cc(OC)c(O)cc23)cc1O | > 100 µM (inactive) | > 100 µM (inactive) | > 100 µM (inactive) | > 100 µM (inactive) | > 100 µM (inactive) | 30 µM (inactive) | > 100 µM (inactive) | > 100 µM (inactive) | > 100 µM (inactive) | > 100 µM (inactive) |  | > 100 µM (inactive) | > 100 µM (inactive) | > 100 µM | > 100 µM (inactive) | > 100 µM (inactive) | > 100 µM (inactive) | 
3 | Cc1cc2c3c(coc3c1-c1c(C)cc3c4c(coc14)C(=O)C(O)=C3C(C)C)C(=O)C(O)=C2C(C)C | 3.66 µM (inactive) | 5.45 µM (inactive) | 14.5 µM (inactive) | 5.37 µM (inactive) | 5.7 µM (inactive) | 4.72 µM (inactive) | 3.42 µM (inactive) | 3.26 µM (inactive) | 3.51 µM (inactive) | 15.1 µM (inactive) | 19.2 µM (inactive) | 2.28 µM (inactive) | 4.3 µM (inactive) | 3.94 µM | 3.94 µM (inactive) | 3.58 µM (inactive) | 6.79 µM (inactive) | 
4 | CC1=C(C(=O)Nc2cc(F)c(F)cc2F)C(c2cccc([N+](=O)[O-])c2)C(C(=O)Nc2ccccc2C(F)(F)F)=C(C)N1 (stereo not given) | 12.5 µM (inactive) | 16.8 µM (inactive) | 31.8 µM (inactive) | 23.4 µM (inactive) | 17.9 µM (inactive) | 27 µM (inactive) | 14.6 µM (inactive) | 14.4 µM (inactive) | 21.1 µM (inactive) | 22.1 µM (inactive) | 23.2 µM (inactive) | 21.4 µM (inactive) | 21.3 µM (inactive) |  | 26.7 µM (inactive) | 17.5 µM (inactive) | 18.1 µM (inactive) | 
5 | O=C(CSc1nnc(Cc2ccccc2)o1)Nc1ccccc1Cl | > 100 µM (inactive) | > 100 µM (inactive) | > 100 µM (inactive) | > 100 µM (inactive) | > 100 µM (inactive) | > 100 µM (inactive) | > 100 µM (inactive) | > 100 µM (inactive) | > 100 µM (inactive) | > 100 µM (inactive) | > 100 µM (inactive) |  | > 100 µM (inactive) | > 100 µM | > 100 µM (inactive) | > 100 µM (inactive) | > 100 µM (inactive) | 
6 | CCCCc1c2c(nc3c1CC/C(=C\c1ccccc1)C3=O)CCCC2 | 3.33 µM (inactive) | 3.25 µM (inactive) | 9.33 µM (inactive) | 4.47 µM (inactive) | 1.76 µM (inactive) | 1.98 µM (inactive) | 2.79 µM (inactive) | 4.07 µM (inactive) | 12.1 µM (inactive) |  | 10.2 µM (inactive) | 12.2 µM (inactive) | 3.85 µM (inactive) | 3.3 µM | 2.22 µM (inactive) | 3.43 µM (inactive) |  | 3.54 µM (inactive)
7 | COc1cc2c(cc1O)C=NCC2 | 60.5 µM (inactive) | 78.5 µM (inactive) | > 100 µM (inactive) | > 100 µM (inactive) |  | > 100 µM (inactive) | > 100 µM (inactive) | > 100 µM (inactive) | > 100 µM (inactive) | 63.5 µM (inactive) | > 100 µM (inactive) | > 100 µM (inactive) | > 100 µM (inactive) | > 100 µM |  | 50 µM (inactive) | > 100 µM (inactive) | 
8 | CC1(C)C(=O)C(C)(C)C1=NN | > 100 µM (inactive) | > 100 µM (inactive) | > 100 µM (inactive) | > 100 µM (inactive) | > 100 µM (inactive) | > 100 µM (inactive) | > 100 µM (inactive) | > 100 µM (inactive) | > 100 µM (inactive) | > 100 µM (inactive) | > 100 µM (inactive) |  | > 100 µM (inactive) | > 100 µM | > 100 µM (inactive) |  | > 100 µM (inactive) | > 100 µM (inactive)
9 | CCSC(SCC)=C1C(=O)N(c2ccccc2)N=C1C | 6.98 µM (inactive) | 4.67 µM (inactive) | 10.1 µM (inactive) | 23.7 µM (inactive) | 12.4 µM (inactive) | 11.6 µM (inactive) | 2.33 µM (inactive) | 5.71 µM (inactive) | 15.7 µM (inactive) | 18.3 µM (inactive) | 17.9 µM (inactive) | 13.7 µM (inactive) | 19.3 µM (inactive) | 12.3 µM | 19.1 µM (inactive) | 2.92 µM (inactive) |  | 15.6 µM (inactive)
10 | Cc1cc(C=O)c2c(=O)c3c(O)ccc(/C=C/C(C)C)c3oc2c1 | 28.9 µM (inactive) | 43.2 µM (inactive) | > 100 µM (inactive) | > 100 µM (inactive) |  | 65.2 µM (inactive) | 28.3 µM (inactive) | 39.8 µM (inactive) | 46.3 µM (inactive) | 65.5 µM (inactive) |  |  | 86.9 µM (inactive) | 30.5 µM | > 100 µM (inactive) | > 10 µM (inactive) | 31.4 µM (inactive) | 26.7 µM (inactive)
11 | CC(=O)c1ccc2c(ccc(=O)n2C)c1 | > 100 µM (inactive) | > 100 µM (inactive) | > 100 µM (inactive) | > 100 µM (inactive) | > 100 µM (inactive) | > 100 µM (inactive) | > 100 µM (inactive) | > 100 µM (inactive) |  | > 100 µM (inactive) | > 100 µM (inactive) | > 100 µM (inactive) | > 100 µM (inactive) | > 100 µM | > 100 µM (inactive) | > 100 µM (inactive) | > 100 µM (inactive) | 
12 | NC1=NN(c2ccccc2)C(=O)C1/C(=N\NC(=O)c1cc2ccccc2cc1O)C(=O)Nc1cccc(C(F)(F)F)c1 (stereo not given) | 16.3 µM (inactive) | 25.7 µM (inactive) | > 100 µM (inactive) | 49.1 µM (inactive) | 25.9 µM (inactive) | 24.1 µM (inactive) | 6.65 µM (inactive) |  | 30.1 µM (inactive) | 23.1 µM (inactive) |  | 35.6 µM (inactive) | 37.3 µM (inactive) |  | 41 µM (inactive) | 7.06 µM (inactive) | 42.5 µM (inactive) | 
13 | CCN(c1ccccc1)[C@H]1C(=O)N(c2ccc([N+](=O)[O-])cc2)[C@H]1c1ccc(OC)cc1 | > 100 µM (inactive) | > 100 µM (inactive) | > 100 µM (inactive) | 52.5 µM (inactive) |  | > 100 µM (inactive) | 75.3 µM (inactive) | 41.6 µM (inactive) | > 100 µM (inactive) | > 100 µM (inactive) | 56.8 µM (inactive) | > 100 µM (inactive) | > 100 µM (inactive) |  | > 100 µM (inactive) | 39.1 µM (inactive) |  | > 100 µM (inactive)
14 | CC1(O)CCC2(C)C(=O)C1(C)CCC21OCCO1 (stereo not given) | > 100 µM (inactive) | > 100 µM (inactive) | > 100 µM (inactive) | > 100 µM (inactive) |  | > 100 µM (inactive) | > 100 µM (inactive) | > 100 µM (inactive) | > 100 µM (inactive) | > 100 µM (inactive) | > 100 µM (inactive) | > 100 µM (inactive) | > 100 µM (inactive) | > 100 µM | > 100 µM (inactive) | > 100 µM (inactive) |  | > 100 µM (inactive)
15 | CCOP1(=O)C=CC(Cl)=C(C)C1 (stereo not given) | 3.64 µM (inactive) | 19.9 µM (inactive) | 19.5 µM (inactive) | 35.2 µM (inactive) | 19.2 µM (inactive) | 19.6 µM (inactive) | 3.57 µM (inactive) | 5.06 µM (inactive) | 8.63 µM (inactive) | 17.7 µM (inactive) | 48 µM (inactive) | 26.4 µM (inactive) | 18.3 µM (inactive) | 13.7 µM | 13.2 µM (inactive) | 3.13 µM (inactive) | 16.4 µM (inactive) | 
16 | COc1ccc(C(CCC(C)=O)C(=O)O)cc1OC (stereo not given) |  | > 100 µM (inactive) | > 100 µM (inactive) | > 100 µM (inactive) | > 100 µM (inactive) | > 100 µM (inactive) |  | > 100 µM (inactive) | > 100 µM (inactive) | > 100 µM (inactive) |  | > 100 µM (inactive) | > 100 µM (inactive) | > 100 µM | > 100 µM (inactive) |  | > 100 µM (inactive) | > 100 µM (inactive)
17 | Nc1cccc(S(=O)(=O)NCC(=O)O)c1 | > 100 µM (inactive) | > 100 µM (inactive) | > 100 µM (inactive) | > 100 µM (inactive) | > 100 µM (inactive) | > 100 µM (inactive) |  | > 100 µM (inactive) | > 100 µM (inactive) | > 100 µM (inactive) | > 100 µM (inactive) | > 100 µM (inactive) | > 100 µM (inactive) | > 100 µM | > 100 µM (inactive) | > 100 µM (inactive) | > 100 µM (inactive) | 
18 | COc1ccc(CNc2cc(OC)cc(OC)c2)cc1 | > 42.9 µM (inactive) | 50.8 µM (inactive) |  |  | 56.8 µM (inactive) | > 82 µM (inactive) | > 39.2 µM (inactive) | 29.8 µM (inactive) | > 69.3 µM (inactive) | 30.3 µM (inactive) | > 66.7 µM (inactive) | 60.8 µM (inactive) | 48.6 µM (inactive) |  |  |  | 68.9 µM (inactive) | 
